This note sets out measurements from PubChem BioAssay (NCI).

Some test systems named below: SK-MEL-2 melanoma; OVCAR-4 ovarian; HCT-15 colon; HS 578T breast; SNB-19 CNS; CAKI-1 renal; 786-0 renal; HCT-116 colon; LOX IMVI melanoma; K-562 leukemia; ACHN renal; IGROV1 ovarian; BT-549 breast; MCF7 breast; UO-31 renal; M14 melanoma; SF-295 CNS; SK-MEL-5 melanoma; OVCAR-5 ovarian; SK-MEL-28 melanoma.
What all share (assay): growth of human tumour cells (NCI), 48 h

Structures are written as SMILES.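 Cells were grown in 96-well plates and exposed to each compound for 48 hours at five concentrations; endpoints were interpolated linearly between bracketing concentrations, or set to the highest concentration if not reached. At the TGI there is no net growth.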

In the case of `O=[N+]([O-])/C(Cl)=C(/C(Cl)=C(Cl)Cl)N1CCOCC1`, the TGI in the experiment on SK-MEL-2 melanoma was 11.6 µM; in the experiment on OVCAR-4 ovarian, 16.7 µM; with HCT-15 colon, 3.24 µM; in the experiment with HS 578T breast, 14.9 µM; in the experiment on SNB-19 CNS, 38.3 µM; in the experiment with CAKI-1 renal it was 12.7 µM. Moreover, the TGI with 786-0 renal worked out at 10 µM; in the experiment on HCT-116 colon, 7.51 µM; in the experiment with LOX IMVI melanoma, 17.3 µM; with K-562 leukemia it was 12.8 µM; in the experiment with ACHN renal, 20.5 µM; in the experiment with IGROV1 ovarian it was 3.88 µM. The TGI in the experiment on BT-549 breast is 8.86 µM; in the experiment on MCF7 breast, 8.25 µM; with UO-31 renal, 12.8 µM; with M14 melanoma it was 7.66 µM; in the experiment with SF-295 CNS, 25.8 µM; in the experiment with SK-MEL-5 melanoma, 3.48 µM. In addition, the TGI with OVCAR-5 ovarian stood at 22 µM; in the experiment on SK-MEL-28 melanoma, 34.3 µM.

`CC(C)(C)OC(=O)CCCCCNC(=O)CCCCCNC(=O)CCC(CN(CC(=O)OCc1ccccc1)CC(=O)OCc1ccccc1)N(CC(=O)OCc1ccccc1)CC(=O)OCc1ccccc1` (stereo not given): the TGI in the experiment on SK-MEL-2 melanoma, in the experiment on OVCAR-4 ovarian, with HCT-15 colon, in the experiment on HS 578T breast, with SNB-19 CNS and in the experiment with CAKI-1 renal was above 100 µM in each case. For the same compound, the TGI with 786-0 renal, in the experiment with HCT-116 colon, with LOX IMVI melanoma, with K-562 leukemia, in the experiment on ACHN renal and with IGROV1 ovarian was above 100 µM in each case. Further, the TGI in the experiment on BT-549 breast, in the experiment with MCF7 breast, in the experiment on UO-31 renal, with M14 melanoma, with SF-295 CNS and with SK-MEL-5 melanoma was above 100 µM in each case. The TGI in the experiment with OVCAR-5 ovarian and with SK-MEL-28 melanoma was above 100 µM each time.

On to `Cc1ccc(S(=O)(=O)N2CCNCCN(S(=O)(=O)c3ccc(C)cc3)CCNCC2)cc1`, for which the TGI with SK-MEL-2 melanoma was 41.9 µM; in the experiment on OVCAR-4 ovarian, 82.4 µM; with HCT-15 colon it was above 100 µM; with HS 578T breast, 35.7 µM; in the experiment on SNB-19 CNS, above 100 µM; in the experiment on CAKI-1 renal, 73.5 µM. Besides, the TGI worked out at 33.7 µM in the experiment with 786-0 renal; 28.5 µM in the experiment on HCT-116 colon; 25.6 µM in the experiment on LOX IMVI melanoma; 31.4 µM in the experiment on K-562 leukemia; 89.1 µM with ACHN renal; 42.9 µM with IGROV1 ovarian. Moreover, the TGI was determined as 47.1 µM in the experiment with BT-549 breast; 53.8 µM with MCF7 breast; 62.6 µM with UO-31 renal; 34.7 µM in the experiment with M14 melanoma; 32 µM with SF-295 CNS; 29.9 µM with SK-MEL-5 melanoma. Besides, the TGI is above 100 µM in the experiment with OVCAR-5 ovarian and 37.6 µM in the experiment on SK-MEL-28 melanoma.

Take `Cc1ccc(S(=O)(=O)N/N=C2/CCC3(O)CC2(C)CCC2[C@H]3CC2(C)C)cc1` (stereo not given in full): the TGI in the experiment on SK-MEL-2 melanoma was 69.2 µM; in the experiment with OVCAR-4 ovarian, above 100 µM; with HCT-15 colon, above 100 µM; in the experiment with HS 578T breast, above 100 µM; in the experiment on SNB-19 CNS, above 100 µM; in the experiment on CAKI-1 renal, above 100 µM. Further, the TGI in the experiment on 786-0 renal was above 100 µM; with HCT-116 colon, 75.7 µM; with LOX IMVI melanoma, 28.6 µM; with K-562 leukemia, 90.7 µM; in the experiment on ACHN renal it was above 100 µM; in the experiment on IGROV1 ovarian, 74.3 µM. The TGI in the experiment with BT-549 breast is 86.4 µM; in the experiment on MCF7 breast, above 100 µM; with UO-31 renal it was 68.6 µM; in the experiment with M14 melanoma it was above 100 µM; with SF-295 CNS it was 93 µM; in the experiment with SK-MEL-5 melanoma, 33.1 µM. Besides, the results for the TGI in the experiment on OVCAR-5 ovarian and in the experiment on SK-MEL-28 melanoma were 78.1 µM and 61.2 µM, respectively.

Take `O=C(NCCNCCNC(=O)c1cc(-c2ccccc2)nc2ccccc12)c1cc(-c2ccccc2)nc2ccccc12`: the TGI with SK-MEL-2 melanoma came to 3.13 µM; with OVCAR-4 ovarian, 5.98 µM; in the experiment with HCT-15 colon it was 8.19 µM; in the experiment on HS 578T breast it was 6.86 µM; in the experiment with SNB-19 CNS, 24.3 µM; in the experiment with CAKI-1 renal, 24.1 µM. For the same compound, the TGI with 786-0 renal was 3.39 µM; in the experiment on HCT-116 colon, 3.18 µM; in the experiment with LOX IMVI melanoma, 3.05 µM; in the experiment with K-562 leukemia, 3.99 µM; in the experiment on ACHN renal, 4.85 µM; with IGROV1 ovarian, 7.25 µM. Also, the TGI in the experiment on BT-549 breast worked out at 28.6 µM; with MCF7 breast, 3.96 µM; with UO-31 renal it was 6.94 µM; in the experiment on M14 melanoma it was 3.12 µM; in the experiment with SF-295 CNS, 3.28 µM; with SK-MEL-5 melanoma, 3.18 µM. Besides, the TGI in the experiment with OVCAR-5 ovarian amounted to 4.91 µM; with SK-MEL-28 melanoma, 3.25 µM.

On to `CCCCCCCCCCCCCCCCNC(=O)/C(=C\c1ccc(Cl)c(Cl)c1)NC(=O)c1ccccc1`, for which the TGI with SK-MEL-2 melanoma was above 100 µM; in the experiment on OVCAR-4 ovarian, 84.4 µM; with HCT-15 colon it was above 100 µM; in the experiment with HS 578T breast it was above 100 µM; with SNB-19 CNS it was above 100 µM; in the experiment on CAKI-1 renal, above 100 µM. The TGI with 786-0 renal was 47.4 µM; in the experiment on HCT-116 colon, above 100 µM; in the experiment with LOX IMVI melanoma, 54.2 µM; in the experiment with K-562 leukemia, 64.3 µM; with ACHN renal it was above 100 µM; in the experiment on IGROV1 ovarian, 41.4 µM. Moreover, the TGI is above 100 µM with BT-549 breast; 59.1 µM in the experiment with MCF7 breast; above 100 µM in the experiment with UO-31 renal; above 100 µM in the experiment on M14 melanoma; above 100 µM in the experiment with SF-295 CNS; above 100 µM in the experiment on SK-MEL-5 melanoma. The TGI in the experiment on OVCAR-5 ovarian and in the experiment on SK-MEL-28 melanoma was above 100 µM in each case.

For `CC(C)(C)OC(=O)N1CCCC1C(=O)NC(c1ccccc1)c1ccccc1` (stereo not given), the TGI with SK-MEL-2 melanoma, in the experiment on OVCAR-4 ovarian, in the experiment on HCT-15 colon, in the experiment on HS 578T breast, in the experiment on SNB-19 CNS and in the experiment with CAKI-1 renal was above 100 µM in each case. For the same compound, the TGI in the experiment with 786-0 renal, in the experiment on HCT-116 colon, in the experiment on LOX IMVI melanoma, in the experiment on K-562 leukemia, in the experiment on ACHN renal and in the experiment with IGROV1 ovarian was above 100 µM throughout. The TGI in the experiment with BT-549 breast, in the experiment on MCF7 breast, in the experiment on UO-31 renal, in the experiment with M14 melanoma, in the experiment with SF-295 CNS and in the experiment with SK-MEL-5 melanoma was above 100 µM in each case. Further, the TGI in the experiment with OVCAR-5 ovarian and in the experiment on SK-MEL-28 melanoma was above 100 µM throughout.

With `Cc1ccc2nc(NS(=O)(=O)c3cc(C)c(Cl)cc3S)[nH]c2c1`, the TGI in the experiment with SK-MEL-2 melanoma, in the experiment on OVCAR-4 ovarian, in the experiment on HCT-15 colon, with HS 578T breast, in the experiment with SNB-19 CNS and with CAKI-1 renal was above 100 µM in each case. Moreover, the TGI in the experiment with 786-0 renal was above 100 µM; in the experiment with HCT-116 colon, above 100 µM; in the experiment on LOX IMVI melanoma it was 73.2 µM; in the experiment with K-562 leukemia, above 100 µM; in the experiment with ACHN renal it was above 100 µM; in the experiment on IGROV1 ovarian, above 100 µM. In addition, the TGI with BT-549 breast, with MCF7 breast, in the experiment on UO-31 renal, with M14 melanoma, in the experiment on SF-295 CNS and in the experiment with SK-MEL-5 melanoma was above 100 µM each time. In addition, the TGI in the experiment with OVCAR-5 ovarian and in the experiment with SK-MEL-28 melanoma was above 100 µM throughout.

`CC(C)[C@H]1NC(=O)[C@H]2N=C(S[C@H]2C)[C@@H]2CCCN2C(=O)[C@H](Cc2ccccc2)NC(=O)[C@@H]2CSC(=N2)[C@@H](Cc2ccccc2)NC(=O)[C@@H]2CSC1=N2`: the TGI was above 50 µM with SK-MEL-2 melanoma; above 50 µM in the experiment on OVCAR-4 ovarian; above 50 µM in the experiment with HCT-15 colon; 47 µM in the experiment with HS 578T breast; above 50 µM with SNB-19 CNS; above 50 µM in the experiment on CAKI-1 renal. The TGI in the experiment with 786-0 renal was above 50 µM; in the experiment with HCT-116 colon, above 50 µM; in the experiment with LOX IMVI melanoma, above 50 µM; with K-562 leukemia, 23.9 µM; in the experiment with ACHN renal, above 50 µM; in the experiment with IGROV1 ovarian it was above 50 µM. Moreover, the TGI with BT-549 breast, in the experiment on MCF7 breast, in the experiment with UO-31 renal, with M14 melanoma, with SF-295 CNS and in the experiment on SK-MEL-5 melanoma was above 50 µM throughout. Further, the TGI in the experiment with OVCAR-5 ovarian and with SK-MEL-28 melanoma was above 50 µM throughout.

Consider `Cc1ccc(C(=O)Oc2ccccc2)cc1N=NN(C)C`, for which the TGI in the experiment with SK-MEL-2 melanoma, in the experiment with OVCAR-4 ovarian, in the experiment on HCT-15 colon, in the experiment with HS 578T breast, with SNB-19 CNS and in the experiment on CAKI-1 renal was above 100 µM throughout. Also, the TGI in the experiment with 786-0 renal, with HCT-116 colon, in the experiment with LOX IMVI melanoma, in the experiment on K-562 leukemia, with ACHN renal and in the experiment on IGROV1 ovarian was above 100 µM throughout. In addition, the TGI in the experiment with BT-549 breast, with MCF7 breast, in the experiment with UO-31 renal, in the experiment with M14 melanoma, in the experiment on SF-295 CNS and in the experiment on SK-MEL-5 melanoma was above 100 µM each time. The TGI in the experiment on OVCAR-5 ovarian and in the experiment with SK-MEL-28 melanoma was above 100 µM throughout.
